Data taken from patent US9777301B2, “Method for producing optically active amine compounds by deracemization” (INDUSTRY-ACADEMIC COOPERATION FOUNDATION, YONSEI UNIVERSITY, priority 2012, dated 2017).
Entries after “also recorded” stand apart in the source; their conditions may differ.

Experiments:
[1] = tested on: (S)-selective ω-transaminase derived from P. denitrificans; experiment: Substrate specificity of (S)-selective ω-transaminase toward keto acids; format: biochemical, Paracoccus denitrificans; details: for Acetophenone (mM) P. denitrificans: keto acid 20 mM, (S)-α-methylbenzylamine 20 mM, 50 mM potassium phosphate pH 7, 37° C., 10 min
Experimental: (§1) The substrate specificity of the (S)-selective ω-transaminase was confirmed in each keto acid (20 mM), (S)-α-methylbenzylamine (20 mM) and potassium phosphate (50 mM, pH 7). After the reactions were carried out at 37° C. for 10 min, the amounts of acetophenone produced were measured.

[2] = tested on: (S)-selective ω-transaminase derived from O. anthropi; experiment: as above; format: biochemical, Ochrobactrum anthropi; details: for Activity of (S)-selective ω-transaminase toward keto acid (in words): Table 9, speaks of the (S)-selective ω-transaminase without naming O. anthropi or P. denitrificans; for Acetophenone (mM) O. anthropi: keto acid 20 mM, (S)-α-methylbenzylamine 20 mM, 50 mM potassium phosphate pH 7, 37° C., 10 min
Experimental: as §1

[3] = tested on: D-amino acid transaminase; experiment: Substrate specificity of purified D-amino acid transaminase toward keto acids (amino acceptors); format: biochemical, Bacillus sphaericus; details: for Activity of D-amino acid transaminase toward amino acceptor (in words): Tables 7 and 8; for Pyruvate (mM) generated: D-alanine 20 mM as amino donor
Experimental: Each of amino acceptors shown in Tables 7 and 8 and D-alanine or D-homoalanine as substrates were allowed to react with the D-amino acid transaminase purified in Example 7. Specifically, each amino acceptor (20 mM), D-alanine or D-homoalanine (20 mM), and potassium phosphate (50 mM, pH 7) were allowed to react with 0.1 U/ml of the D-amino acid transaminase at 37° C. for 10 min, and the amount of a keto acid (pyruvate or 2-oxobutyrate) generated was measured.

[4] = amino acceptor 20 mM, 0.1 U/ml enzyme, 50 mM potassium phosphate pH 7, 37° C., 10 min

O=CC(=O)O [Glyoxylate]
Acetophenone (mM) P. denitrificans [1]: 1.076 mM | Activity of (S)-selective ω-transaminase toward keto acid (in words) [2]: have activity | Acetophenone (mM) O. anthropi [2]: 1.733 mM

CCCCC(=O)C(=O)O [2-Ketohexanoate]
Activity of D-amino acid transaminase toward amino acceptor (in words) [3]: have activity | Pyruvate (mM) generated [3, 4]: 0.531 mM | Acetophenone (mM) P. denitrificans [1]: 0.713 mM | Activity of (S)-selective ω-transaminase toward keto acid (in words) [2]: have activity | Acetophenone (mM) O. anthropi [2]: 0.006 mM

CC(C)C(=O)C(=O)O [3-Methyl-2-oxobutyrate]
Activity of D-amino acid transaminase toward amino acceptor (in words) [3]: have activity | Pyruvate (mM) generated [3, 4]: 0.014 mM | Acetophenone (mM) P. denitrificans [1]: -0.002 mM | Acetophenone (mM) O. anthropi [2]: -0.001 mM

O=C(O)C(=O)CS [Mercaptopyruvate]
Activity of D-amino acid transaminase toward amino acceptor (in words) [3]: have activity | Pyruvate (mM) generated [3, 4]: 0.022 mM | Acetophenone (mM) P. denitrificans [1]: 0.008 mM | Acetophenone (mM) O. anthropi [2]: 0.012 mM

O=C(O)C(=O)CF [Fluoropyruvate]
Activity of D-amino acid transaminase toward amino acceptor (in words) [3]: have activity | Pyruvate (mM) generated [3, 4]: 0.053 mM | Acetophenone (mM) P. denitrificans [1]: 0.339 mM | Activity of (S)-selective ω-transaminase toward keto acid (in words) [2]: have activity | Acetophenone (mM) O. anthropi [2]: 0.554 mM

CC(C)CC(=O)C(=O)O [4-Methyl-2-oxopentanoate]
Activity of D-amino acid transaminase toward amino acceptor (in words) [3]: have activity | Pyruvate (mM) generated [3, 4]: 0.073 mM | Activity of (S)-selective ω-transaminase toward keto acid (in words) ([1]; Table 9, marked (P. denitrificans)): have activity | Acetophenone (mM) P. denitrificans [1]: 0.175 mM | Acetophenone (mM) O. anthropi [2]: 0.005 mM

CCC(C)C(=O)C(=O)O (centres unmarked) [3-Methyl-2-oxopentanoate]
Acetophenone (mM) P. denitrificans [1]: -0.004 mM | Acetophenone (mM) O. anthropi [2]: 0.001 mM

O=C(O)C(=O)CO [β-Hydroxypyruvate]
Activity of D-amino acid transaminase toward amino acceptor (in words) [3]: have activity | Pyruvate (mM) generated [3, 4]: 0.079 mM | Acetophenone (mM) P. denitrificans [1]: 0.066 mM | Activity of (S)-selective ω-transaminase toward keto acid (in words) [2]: have activity | Acetophenone (mM) O. anthropi [2]: 0.183 mM

O=C(O)C(=O)C12CC3CC(CC(O)(C3)C1)C2 [2-(3-Hydroxy-1-adamantyl)-oxoethanoate]
Pyruvate (mM) generated [3, 4]: 0.000 mM | Acetophenone (mM) P. denitrificans [1]: -0.004 mM | Acetophenone (mM) O. anthropi [2]: -0.002 mM

O=C(O)CCC(=O)C(=O)O [α-Ketoglutarate]
Activity of D-amino acid transaminase toward amino acceptor (in words) [3]: have activity; also recorded: had activity | Pyruvate (mM) generated [3, 4]: 0.971 mM | Acetophenone (mM) P. denitrificans [1]: -0.003 mM | Activity of (S)-selective ω-transaminase toward keto acid (in words) [2]: no activity | Acetophenone (mM) O. anthropi [2]: -0.001 mM

CCCC(=O)C(=O)O [2-Oxopentanoate]
Activity of D-amino acid transaminase toward amino acceptor (in words) [3]: have activity | Pyruvate (mM) generated [3, 4]: 0.882 mM | 2-Oxobutyrate (mM) generated ([3]; amino acceptor 20 mM, D-homoalanine 20 mM as amino donor, 0.1 U/ml enzyme, 50 mM potassium phosphate pH 7, 37° C., 10 min): 0.651 mM | Acetophenone (mM) P. denitrificans [1]: 1.032 mM | Activity of (S)-selective ω-transaminase toward keto acid (in words) [2]: have activity | Acetophenone (mM) O. anthropi [2]: 0.078 mM

CC(C)(C)C(=O)C(=O)O [Trimethylpyruvate]
Pyruvate (mM) generated [3, 4]: 0.000 mM | Acetophenone (mM) P. denitrificans [1]: -0.004 mM | Acetophenone (mM) O. anthropi [2]: -0.002 mM
